From patent publication US8404790B2, “Aqueous emulsion polymerization process for producing fluoropolymers” (3M Innovative Properties Company, priority 2005, dated 2013) come the findings set out here.

The series can be described thus: Determination of bio-accumulation: urinary clearance pharmacokinetic study in rats. The note with it: oral gavage.

Experimental: The fluorinated surfactants were evaluated for urinary clearance using a pharmacokinetic study in rats. The goal was to measure the total amount of parent compound eliminated via urinary output and estimate the rate of elimination.
The study utilized male Sprague Dawley rats, 6 to 8 weeks of age, and approximately 200 to 250 g body weight at study onset. The test compounds of table 2 were administered at a dose of 73 micromoles per kg body weight in rats (N=3 animals per tested compound). All test compounds were prepared in sterile deionized water and given to rats via oral gavage. After test compounds administration, the rats were housed individually in metabolism cages for urine collection: 0 to 6 hours, 6 to 24 hours, 24 to 48 hours and 72 to 96 hours. Animals were observed throughout the study for clinical signs of toxicity. Gross necropsy was performed at the termination of each study (96 hours post-dose) with sera and liver samples being retained from each animal
The concentration of the parent compound or metabolites thereof were quantitatively measured via fluorine NMR on each urine sample for each animal at each time point based on internally added standards.

Turning to `O=C(O)C(F)(F)OC(F)(F)OC(F)(F)OC(F)(F)OC(F)(F)F` [Compound 1, perfluoro-3,5,7,9-tetraoxadecanoic acid (CF3—(OCF2)4—COOH)], the “T½ (renal elimination half-life)” value (73 micromoles per kg body weight, urine, fluorine NMR, exponential least squares curve fitting) turned out to be 15 h. Further, the “% Recovery (96 h)” value (73 micromoles per kg, recovery of administered amount in urine after 96 h) came to 50%.
